Entries after “also recorded” stand apart in the source; their conditions may differ. No end group written: not given here.
Experiments:
[1] = test system: spontaneous Type 1 diabetes; assay: Spontaneous type 1 diabetes in NOD mice; format: in vivo; conditions: iv at 6, 8, and 10 weeks of age; diabetes = blood glucose >250 mg/dL
Experimental: NOD mice were treated with either BSA (N=22) or insulin (N=23) coupled PLG particles via intravenous administration at 6, 8, and 10 weeks of age. The mice were then assayed for the development of diabetes which was defined as blood glucose >250 mg/dL.

[2] = test system: Relapsing Experimental Autoimmune Encephalitis (R-EAE); assay: Prophylactic tolerance induction in PLP139-151/CFA-induced R-EAE; format: in vivo, SJL/J mice; conditions: for clinical score (disease induction): 500 nm particles given on day −7 relative to immunization, N=5
Th1 and Th17 responses = assay: Induction of antigen-specific Th1 and Th17 responses (draining lymph node cells); format: in vivo, BALB/c mice; conditions: particles iv Day −7; measured at Day 10
Experimental: To determine whether administration of antigen-coupled particles inhibit induction of T-helper cells, either MOG35-55-PLG or OVA323-339-PLG particles were administered intravenously to BALB/c mice at Day −7. On Day 0, OVA323-339-PLG particles and Complete Freund's Adjuvant (CFA) were administered subcutaneously to the mice. The animals were re-stimulated with either MOG35-55-PLG or OVA323-339-PLG particles on Day 10 and the draining lymph node cells were isolated. The CPM and levels of IL-17, GM-CSF, IFN-γ, IL-10, and IL-4 were measured at Day 10.

[3] = test system: cervical spinal cord of R-EAE mice; assay: Spinal cord histology and in vivo imaging in EAE
Experimental: An additional therapeutic tolerance strategy was performed by delivering PLP139-151-PLG or OVA323-339 PLG to mice. […] Mice were treated with PLP-PLG or OVA323-339-PLG and the tissue was retrieved at day 40. The cervical spinal cord was isolated and sectioned to investigate the immune response within the CNS, which underlies the pathology of R-EAE and multiple sclerosis.
Animals were treated with Complete Freund's Adjuvant (CFA), OVA323-339 PLG particles, or PLP139-151-PLG particles. The clinical scores and percent incidence of EAE were determined (FIG. 10B) and the spinal cords observed via in vivo imaging (FIGS. 10A and 11). […] The bar graphs give the numerical numbers to the signal strength shown in the brain and SC scans.

[4] = test system: Relapsing Experimental Autoimmune Encephalitis (R-EAE); assay: Treatment of R-EAE at day 10 by different routes of administration; format: in vivo, mice
Experimental: Experiments were conducted during development of embodiments of the present invention to investigate the ability of the PLG-PLP139-151 particles to treat disease rather than prevent disease, and to determine whether the route of administration affected the development of disease. Mice were immunized at day 0 with PLP139-151 and an adjuvant. Mice normally have maximal clinical scores at day 12-14. In this model, the mice were treated at day 10 with the PLG-PLP139-151 particles or with control PLG-OVA323-339 particles either via intravenous (iv) administration, intraperitoneal (ip) administration, subcutaneous (sc) administration, or orally. […] This is in contrast to animals treated with PLP139-151 polystyrene particles, whereby >70% of animals where observed to die from anaphylaxis.

[5] = test system: PLP139-151/CFA-induced EAE; assay: Anaphylaxis on iv injection during EAE remission; format: in vivo, SJL/J mice; conditions: iv on day 21 (remission) relative to disease induction
Experimental: EAE was induced in six to eight week old female SJL/J mice by subcutaneous injection of PLP139-151 in CFA, and development of clinical disease was monitored and recorded (FIG. 5B). On day 21 relative to disease induction, mice were given iv injections of soluble PLP139-151 (clear squares), soluble OVA323-339 (clear circles), or the same peptides coupled to PLG nanoparticles (solids). Temperature of animals was monitored and recorded every 10 minutes for 1 hour following injection (FIG. 5A).

[6] = test system: adoptive EAE (PLP139-151-activated blasts); assay: Therapeutic tolerance in adoptive transfer (and active) EAE; format: in vivo, SJL/J mice
Experimental: Experiments were conducted during development of embodiments of the present invention to investigate a second model of active disease termed adoptive transfer. Rather than immunizing the animals with the peptide, the lymphocytes from the spleen of mice with active disease were transferred to a recipient, who would subsequently develop disease. Experiments were conducted during development of embodiments of the present invention to characterize the ability of the PLG nanoparticles to deactivate the adoptively transferred activated effector cells.
Therapeutic tolerance induced by PLP139-151-PLG particles was compared in active and adoptive EAE. Adoptive EAE was induced in six to eight-week old female SJL/J mice by adoptive transfer of 2.5×10^6 PLP139-151-activated blasts. Mice were injected iv with PLP139-151 (squares) or OVA323-339 (circles) peptide coupled to 500 nm PLG nanoparticles 2 days (FIG. 14A), 14 days (FIG. 14C), 18 days (FIG. 14E), or 21 days (FIG. 14F) following disease induction. Clinical disease scores were compared to those following treatment with antigen-coupled splenocytes (FIG. 14A). Brain and spinal cord were collected from PLP139-151- or OVA323-339-tolerized mice for histological analysis on day 42. Sections from mice from panel A were stained for PLP protein and CD45 (FIG. 14B).
Mice were injected iv with PLP139-151-SP, PLP139-151-PLG, or OVA323-339-SP, or OVA323-339-PLG peptide coupled to 500 nm nanoparticles 10 days (FIG. 15A) or 2 days (FIG. 15B) following disease induction and the mean clinical score was determined.
SJL/J mice were injected i.v. with 500 nm PLG nanoparticles coupled with PLP139-151 (squares) or OVA323-339 (circles) 2 days following EAE induction by adoptive transfer. At the peak of disease (day 14) brains and spinal cords were removed and the number of lymphocytes (FIG. 16B), APCs (FIG. 16C), microglia (FIG. 16D), peripheral dendritic cells (FIG. 16E), myeloid dendritic cells (FIG. 16F) and macrophages (FIG. 16G) were enumerated by flow cytometry. The gating strategy for these populations is depicted in (FIG. 16A). CNS cell preparations were stimulated with PMA and ionomycin for 5 h prior to intracellular staining for IL-17A and IFN-γ (FIG. 16H).
To test the effect of treatment with an anti-PD-1 antibody on PLP139-151 induced tolerance in mice with adoptive EAE, on Day 0, mice received 3×10^6 PLP139-151 activated T-cell blasts via intravenous administration. On Day 2, they received PLP139-151 or OVA323-339 encapsulated in PLG particles via intravenous administration with either PBS or an anti-PD-1 antibody. On days 4, 6, 8, 10, and 12 all animals received either 250 μg anti-PD-1 antibody or PBS. […]

[7] = test system: OVA/Alum pre-sensitized mice; assay: Anaphylaxis-induced temperature drop in OVA/Alum pre-sensitized animals; format: in vivo; conditions: iv on day 28; within 1 hour of delivery
Experimental: Due to the presence of active disease, anaphylaxis to the antigens is a concern, which could result in immediate mortality, and has been described with polystyrene bound particles. Anaphylaxis is associated with a significant drop in body temperature. To test whether intravenous administration of OVA-PLG induces an anaphylaxis-induced temperature drop in pre-sensitized animals, mice were immunized at day 0 with 10 μg OVA/Alum via intraperitoneal injection. On day 14, the mice were again immunized with 10 μg OVA/Alum via intraperitoneal injection, and then tolerized with OVA-PLG administered intravenously on day 21. On day 28, the mice were then tolerized with either OVA-PLG particles or OVA via intravenous administration.

In the case of “BSA coupled PLG particles: BSA coupled PLG particles (control) [reference compound]”, the “percentage of mice that did not develop diabetes over 300 days” value [1] is reported as 22.7%.

With “OVA323-339-PLG: control peptide OVA323-339 coupled to PLG particles (KISQAVHAAHAEINEAG; also: coupled to PLG particles; UniProt P01012 323-339, looked up, fragment) [reference compound]” the “clinical score (disease induction)” value [2] was “did not prevent disease induction”, the “Th1 and Th17 responses (CPM, IL-17, GM-CSF, IFN-γ, IL-10, IL-4)” value (Th1 and Th17 responses) was “inhibited the Th1 and Th17 responses” and the “staining for CD45, CD4, and CD11b in spinal cord” value ([3]; tissue retrieved at day 40) was “positive staining”.

For “PLP139-151 polystyrene particles: PLP139-151 bound to polystyrene particles (CHCLGKWLGHPDK; cysteine pairing not given here; also: bound to polystyrene particles; UniProt P60202 139-151, looked up, fragment) [reference compound]”, the “animals observed to die from anaphylaxis” value ([4]; mouse, in vivo) was greater than 70%.

With “PLP139-151-PLG: immunodominant proteolipid protein PLP139-151 epitope coupled to 500 nm PLG nanoparticles” the “clinical scores between days 20 and 30” value ([2]; 500 nm particles given on day −7, days 20 to 30) was “under 1”, the “clinical score (disease induction)” value ([2]; listed as PLG-PLP139-151) was “specifically prevented EAE development” and the “clinical score (disease induction)” value ([2]; listed as PLP139-151-PLGA) was 0. For the same molecule, the “mean clinical score with anti-CD25 antibody compared with control IgG antibody” value ([2]; anti-CD25 on Day −9, particles plus antibody on Day −7) was “greater mean clinical score”, the “delayed-type hypersensitivity (DTH) responses to immunizing PLP139-151 epitope” value ([2]; prophylactic treatment on day −7) was “lack of delayed-type hypersensitivity (DTH) responses” and the “induction of R-EAE by type of particle (mean clinical score, mean cumulative score)” value ([2]; treated on day −7, N=5 per group) was “more effective in down-regulating induction of R-EAE”. For the same molecule, the anaphylaxis-associated mortality [5] was “does not result in any anaphylaxis-associated mortality”, the mean clinical scores ([4]; administered intravenously, at most time points) was 0 and the “efficiency of tolerance by route of administration” value ([4]; treated at day 10, iv, ip, sc or oral) was “most efficient when the PLG-PLP139-151 particles are administered either intravenously or intraperitoneally”. The “blood brain barrier (BBB) disruption and macrophage activation in the spinal cord” value ([3]; in vivo imaging (Angiosense, prosense)) was “inhibits blood brain barrier (BBB) disruption and macrophage activation”, the “immune cell infiltration, inflammation and demyelination of the spinal cord” value ([3]; tissue retrieved at day 40) was “inhibits cervical spinal cord inflammation and demyelination; also recorded: reduction in immune cell infiltration within the spinal cord” and the “staining for CD45, CD4, and CD11b in spinal cord” value ([3]; tissue retrieved at day 40) was “minimal staining”. For the same molecule, the “tolerance induction (mean clinical score) in active and adoptive EAE” value ([6]; 500 nm particles iv after disease induction (10 days active, 2 days adoptive)) was “tolerance is induced; also recorded: reduced disease; also recorded: induces tolerance”, the “infiltration of central nervous system immune cells” value ([6]; iv 2 days after adoptive transfer, brains and spinal cords at day 14, flow cytometry) was “drastically reduced” and the mean clinical score ([6]; treated at day 2, all but two time points through day 40) was 0. The “mean clinical score at the other two time points” value ([6]; treated at day 2, through day 40) was 0.25.

For “insulin coupled PLG particles: insulin coupled PLG particles”, the “percentage of mice that did not develop diabetes over 300 days” value [1] was 69.6%.

B1: soluble OVA: soluble ovalbumin given intravenously (protein, UniProt P01012 2-386, looked up)
Ovalbumin: GSIGAASMEFCFDVFKELKVHHANENIFYCPIAIMSALAMVYLGAKDSTRTQINKVVRFDKLPGFGDSIEAQCGTSVNVHSSLRDILNQITKPNDVYSFSLASRLYAEERYPILPEYLQCVKELYRGGLEPINFQTAADQARELINSWVESQTNGIIRNVLQPSSVDSQTAMVLVNAIVFKGLWEKAFKDEDTQAMPFRVTEQESKPVQMMYQIGLFRVASMASEKMKILELPFASGTMSMLVLLPDEVSGLEQLESIINFEKLTEWTSSNVMEERKIKVYLPRMKMEEKYNLTSVLMAMGITDVFSSSANLSGISSAESLKISQAVHAAHAEINEAGREVVGSAEAGVDAASVSEEFRADHPFLFCIKHIATNAVLFFGRCVSP
B1 was tested, and the body temperature [7] was “decrease in temperature”.

From patent US12533403B2, “Peptide conjugated particles” (NORTHWESTERN UNIVERSITY, priority 2013, dated 2026)
